This assay has as its target T1, Dimer of Gag-Pol polyprotein [489-587] (Human immunodeficiency virus 1, UniProt P12497).
T1 construct: 489-587
The experiment in a line: Protease Inhibition Assay. The text has this:
In the presence of HIV-l protease, the substrate is rapidly cleaved into two parts. The biotinylated amino terminal fragment binds to the avidin Pandex beads while the FITC-containing carboxy1 terminal fragment is removed through the membrane.

Broadly, the IC50 is the concentration needed to halve the response being measured. Low readings indicate greater potency in that assay, high ones weaker potency in that assay.

As to `CC(C)[C@@H]1[C@H](OC(=O)N[C@@H](Cc2ccccc2)[C@H](O)CN2C[C@H]3CCCC[C@H]3CC2C(=O)NC(C)(C)C)CCS1(=O)=O` (stereo partly drawn) [(2R,3R)-1,1-dioxo-2-(propan-2-yl)--thiolan-3-yl N-[(2S,3R)-4-[(4aS,8aS)-3-(tert-butylcarbamoyl)-decahydroisoquinolin-2-yl]-3-hydroxy-1-phenylbutan-2-yl]carbamate], the concentration for half-maximal inhibition (IC50) was 4.3 nM.
Compound `CC(C)[C@H]1SCC[C@H]1OC(=O)N[C@@H](Cc1ccccc1)[C@H](O)CN1C[C@H]2CCS[C@H]2CC1C(=O)NC(C)(C)C` (stereo partly drawn) [(2R,3R)-2-(propan-2-yl)thiolan-3-yl N-[(2S,3R)-4-[(3aR,7aS)-6-(tert-butylcarbamoyl)-octahydrothieno[3,2-c]pyridin-5-yl]-3-hydroxy-1-phenylbutan-2-yl]carbamate] came in with an IC50 of 0.26 nM.
As for `CC(C)[C@H]1[C@@H](OC(=O)N[C@@H](CSc2ccccc2)[C@H](O)CN2C[C@H]3CCS[C@H]3CC2C(=O)NC(C)(C)C)CCS1(=O)=O` (stereo partly drawn) [(2S,3S)-1,1-dioxo-2-(propan-2-yl)--thiolan-3-yl N-[(2R,3R)-4-[(3aR,7aS)-6-(tert-butylcarbamoyl)-octahydrothieno[3,2-c]pyridin-5-yl]-3-hydroxy-1-(phenylsulfanyl)butan-2-yl]carbamate], half-maximal inhibition (IC50) required 0.95 nM.
Consider `C[C@@H]1OCC[C@@H]1OC(=O)N[C@@H](CSc1ccccc1)[C@H](O)CN1C[C@H]2CCS[C@H]2CC1C(=O)NC(C)(C)C` (stereo partly drawn) [(2S,3S)-2-methyloxolan-3-yl N-[(2R,3R)-4-[(3aR,7aS)-6-(tert-butylcarbamoyl)-octahydrothieno[3,2-c]pyridin-5-yl]-3-hydroxy-1-(phenylsulfanyl)butan-2-yl]carbamate], for which half-maximal inhibition (pH 5.5, 22 °C) (IC50) required 0.28 nM.
For the compound `CC(C)(C)NC(=O)C1C[C@@H]2SCC[C@@H]2CN1C[C@@H](O)[C@H](CSc1ccccc1)NC(=O)O[C@@H]1CCS(=O)(=O)C1` (some centres not stated) [hydroxyethylene isostere], the IC50 (pH 5.5, 22 °C) stood at 2 nM.
Regarding `CC(C)(C)NC(=O)C1C[C@@H]2SCC[C@@H]2CN1C[C@@H](O)[C@H](CSc1ccccc1)NC(=O)O[C@H]1CCS(=O)(=O)C1` (some centres not stated) [hydroxyethylene isostere], where the note is “pH 5.5, 22 °C”, half-maximal inhibition (IC50) was put at 1.7 nM.
The compound `CC(C)[C@@H]1SCC[C@@H]1OC(=O)N[C@@H](Cc1ccccc1)[C@H](O)CN1C[C@H]2CCS[C@H]2CC1C(=O)NC(C)(C)C` (some centres not stated) [hydroxyethylene isostere] had an IC50 of 2.6 nM.
On the same count and under the same terms, with `CC(C)[C@@H]1[C@H](OC(=O)N[C@@H](CSc2ccccc2)[C@H](O)CN2C[C@H]3CCS[C@H]3CC2C(=O)NC(C)(C)C)CCS1(=O)=O` (some centres not stated) [hydroxyethylene isostere] the figure was 0.42 nM; with `CC(C)[C@@H]1[C@H](OC(=O)N[C@@H](Cc2ccccc2)[C@H](O)CN2C[C@H]3CCS[C@H]3CC2C(=O)NC(C)(C)C)CCS1(=O)=O` (some centres not stated) [hydroxyethylene isostere], 1.3 nM.
In turn, `CC(C)[C@H]1[C@@H](OC(=O)N[C@@H](Cc2ccccc2)[C@H](O)CN2C[C@H]3CCCC[C@H]3CC2C(=O)NC(C)(C)C)CCS1(=O)=O` (some centres not stated) [hydroxyethylene isostere] registered a half-inhibitory concentration (IC50) (pH 5.5, 22 °C) of 8.1 nM.
The compound `CC(C)[C@H]1[C@@H](OC(=O)N[C@@H](Cc2ccccc2)[C@H](O)CN2C[C@H]3CCS[C@H]3CC2C(=O)NC(C)(C)C)CCS1(=O)=O` (some centres not stated) [hydroxyethylene isostere] displayed a concentration for half-maximal inhibition (IC50) of 2.6 nM.
`C[C@@H]1[C@@H](OC(=O)N[C@@H](CSc2ccccc2)[C@H](O)CN2C[C@H]3CCS[C@H]3CC2C(=O)NC(C)(C)C)CCS1(=O)=O` (some centres not stated) [hydroxyethylene isostere] showed an IC50 (pH 5.5, 22 °C) of 5.2 nM.
Take `C[C@@H]1[C@H](OC(=O)N[C@@H](CSc2ccccc2)[C@H](O)CN2C[C@H]3CCS[C@H]3CC2C(=O)NC(C)(C)C)CCS1(=O)=O` (some centres not stated) [hydroxyethylene isostere]: the concentration for half-maximal inhibition (IC50) (pH 5.5, 22 °C) was determined as 0.75 nM.
In the case of `C[C@@H]1[C@H](OC(=O)N[C@@H](Cc2ccccc2)[C@H](O)CN2C[C@H]3CCCC[C@H]3CC2C(=O)NC(C)(C)C)CCS1(=O)=O` (some centres not stated) [hydroxyethylene isostere], half-maximal inhibition (pH 5.5, 22 °C) (IC50) required 10 nM.
On to `C[C@H]1OCC[C@H]1OC(=O)N[C@@H](CSc1ccccc1)[C@H](O)CN1C[C@H]2CCS[C@H]2CC1C(=O)NC(C)(C)C` (some centres not stated) [hydroxyethylene isostere], for which the IC50 (pH 5.5, 22 °C) turned out to be 3 nM.
Regarding `C[C@H]1[C@@H](OC(=O)N[C@@H](CSc2ccccc2)[C@H](O)CN2C[C@H]3CCS[C@H]3CC2C(=O)NC(C)(C)C)CCS1(=O)=O` (some centres not stated) [hydroxyethylene isostere], it took 0.4 nM to reach half-maximal inhibition (pH 5.5, 22 °C) (IC50).
For the compound `C[C@H]1[C@H](OC(=O)N[C@@H](CSc2ccccc2)[C@H](O)CN2C[C@H]3CCS[C@H]3CC2C(=O)NC(C)(C)C)CCS1(=O)=O` (some centres not stated) [hydroxyethylene isostere], 1.4 nM corresponded to half-maximal inhibition (pH 5.5, 22 °C) (IC50).

The values above are taken from BindingDB's records for doi:10.1016/0960-894X(95)00507-P (Eli Lilly, 1995).
